Test results from patent US6977261B2, “Azaisoquinoline derivatives as matrix metalloproteinase inhibitors” (Warner-Lambert Company LLC, priority 2002, dated 2005).

Target: human MMP-13 catalytic domain (hMMP-13CD) (Homo sapiens, UniProt P45452)
Experiment: Inhibition of MMP-13 catalytic domain (thiopeptolide substrate assay)
Format: biochemical
Description: The assays measure the amount by which a test compound reduces the hydrolysis of a thiopeptolide substrate catalyzed by a matrix metalloproteinase enzyme. Such assays are described in detail by Ye et al., in Biochemistry, 1992;31(45):11231-11235, which is incorporated herein by reference. One such assay is described below in Biological Method 1.
Some of the particular methods described below use the catalytic domain of the MMP-13 enzyme, namely matrix metalloproteinase-13 catalytic domain (“MMP-13CD”), rather than the corresponding full-length enzyme, MMP-13. It has been shown previously by Ye Qi-Zhuang, Hupe D., and Johnson L. (Current Medicinal Chemistry, 1996;3:407-418) that inhibitor activity against a catalytic domain of an MMP is predictive of the inhibitor activity against the respective full-length MMP enzyme.
Thiopeptolide substrates show virtually no decomposition or hydrolysis at or below neutral pH in the absence of a matrix metalloproteinase enzyme. A typical thiopeptolide substrate commonly utilized for assays is Ac-Pro-Leu-Gly-thioester-Leu-Leu-Gly-OEt. […] The change in absorbance at 405 nm is monitored on a Thermo Max microplate reader (molecular Devices, Menlo Park, Calif.) at room temperature (22° C.). […]
Some representative compounds of Formula I have been evaluated for their ability to inhibit MMP-13. […]

O=C(O)c1ccc(Cn2ccc3ccc(C#CCn4ccnn4)cc3c2=O)cc1 [4-[1-oxo-7-(3-[1,2,3]triazol-1-ylprop-1-ynyl)-1H-isoquinolin-2-ylmethyl]benzoic acid]
IC50: > 50 µM
